The values that follow are results of earlier work, collected in patent US6457474B1, “Method of treating chest pain” (priority 1997, dated 2002).

The conditions of series [1]: after the tablet has dissolved under the tongue.

On to `O=[N+]([O-])OCC(CO[N+](=O)[O-])O[N+](=O)[O-]` [nitroglycerin], for which the “time for the angina attack to go away” value in series [1] is listed as “approximately five”. Under “after oral administration”, the systemic bioavailability entry is given as “rather low”. The plasma levels result (high oral doses) is “erratic”.
